# Data from patent US9781930B2, “3′-substituted-abscisic acid derivatives” (Valent BioSciences Corporation, priority 2014, dated 2017).
# Tests used:
# rice seedling = conditions: according to Ueno, et al.; cited from earlier work
# (S)-ABA 8′-hydroxylase = target: T1, (S)-ABA 8′-hydroxylase (Arabidopsis thaliana, UniProt Q9FH76); conditions: according to Ueno, et al.; cited from earlier work
# T1 sequence (Q9FH76 1-463): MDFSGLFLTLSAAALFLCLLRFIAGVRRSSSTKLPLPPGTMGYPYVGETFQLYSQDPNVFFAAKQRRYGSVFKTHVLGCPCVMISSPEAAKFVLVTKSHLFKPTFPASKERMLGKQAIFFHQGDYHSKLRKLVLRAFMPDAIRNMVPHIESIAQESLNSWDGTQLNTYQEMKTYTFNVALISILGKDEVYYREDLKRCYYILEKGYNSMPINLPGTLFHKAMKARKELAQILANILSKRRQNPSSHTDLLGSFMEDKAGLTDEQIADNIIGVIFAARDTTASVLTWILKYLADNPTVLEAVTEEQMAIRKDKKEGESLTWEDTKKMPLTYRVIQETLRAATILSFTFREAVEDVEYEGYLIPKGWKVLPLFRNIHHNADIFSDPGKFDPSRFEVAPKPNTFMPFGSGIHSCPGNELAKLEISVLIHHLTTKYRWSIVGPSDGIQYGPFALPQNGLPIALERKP
# [1] = system: Arabidopsis thaliana seed; assay: Seed germination assay for testing Examples 29-46; format: in vivo; parameters: key: + + + +: The other derivatives were scored by potency relative to S-ABA.; (S)-ABA potency = + + +.; + +: The other derivatives were scored by potency relative to S-ABA.; ++: The other derivatives were scored by potency relative to S-ABA.; +: The other derivatives were scored by potency relative to S-ABA.; −− = no effect; conditions: 0.16-40 μM in 6-well plates, 4 days after vernalization, compared with (S)-ABA
# Description: (§1) Seed Germination Assay for Testing Examples 29-46 To determine the germination inhibition potency of the (±)-ABA derivatives, germination assays were performed with the model plant Arabidopsis thaliana. Arabidopsis seed was sterilized by soaking in 70% ethanol solution for 5 minutes, followed by 5% sodium hypochlorite solution for 10 minutes. The seeds were then washed three times with sterile water. The test compounds were tested in germination assay at five concentrations (0.16, 0.64, 2.5, 10, and 40 μM) with (S)-ABA (0.16, 0.64 and 2.5 μM) as a control in 6-well plates. DMSO stock solutions of (S)-ABA and the derivatives at 1,000 fold of the test concentrations were prepared. The stock solutions (5 μL) of (S)-ABA and the derivatives were added to the wells in the assay plate with 0.8% agar solutions of ½ Murashige and Skoog media. Sixteen sterile seeds were placed on the solid agar medium at an appropriate spacing. The assay plates were sealed with surgical tape and wrapped in aluminum foil, and the seeds were vernalized at 4° C. for 2 days. The assay plates were incubated in a growth chamber at 22.5° C. under daily light cycles of 16 hours (30 μmol/m^2·sec) for 4 days after the vernalization. The germination inhibition potency of the derivatives was scored and compared with that of (S)-ABA. The results are summarized in Table 2 “Table 2: Arabidopsis seed germination inhibition activity of (±)-ABA derivatives.”
# [2] = system: Arabidopsis thaliana seed; assay: Seed germination assay for testing Examples 29-46; format: in vivo; parameters: key: ++++: The 3′-substituted-derivatives were scored by potency relative to ABA.; (S)-ABA potency = +++.; ++: The 3′-substituted-derivatives were scored by potency relative to ABA.; +: The 3′-substituted-derivatives were scored by potency relative to ABA.; −− = no effect; conditions: 0.16-40 μM in 6-well plates, 4 days after vernalization, compared with (S)-ABA
# Description: as §1
# [3] = system: Arabidopsis thaliana seed; assay: Seed germination assay for testing Examples 29-46; format: in vivo
# Description: as §1
Compound,Arabidopsis seed germination inhibition potency [1],further results
CC1=C(C)C(O)(/C=C/C(C)=C\C(=O)O)C(C)(C)CC1=O (racemic) [(±)-3′-methyl-ABA],,activity in rice seedling elongation assay compared to (S)-ABA (rice seedling): equal activity to (S)-ABA; activity in (S)-ABA 8′-hydroxylase inhibition assay compared to (S)-ABA ((S)-ABA 8′-hydroxylase): lower activity than (S)-ABA
"CC1=C(CC(C)C)C(=O)CC(C)(C)C1(O)/C=C/C(C)=C\C(=O)O (racemic) [Example 34, (2Z,4E)-5-(1-hydroxy-3-isobutyl-2,6,6-trimethyl-4-oxocyclohex-2-en-1-yl)-3-methylpenta-2,4-dienoic acid]",−−,
"CC1=C(C(C)(C)C)C(=O)CC(C)(C)C1(O)/C=C/C(C)=C\C(=O)O (racemic) [Example 35, (2Z,4E)-5-(3-(tert-butyl)-1-hydroxy-2,6,6-trimethyl-4-oxocyclohex-2-en-1-yl)-3-methylpenta-2,4-dienoic acid]",−−,
"CC1=C(C2(C)CC2)C(=O)CC(C)(C)C1(O)/C=C/C(C)=C\C(=O)O (racemic) [Example 36, (2Z,4E)-5-(1-hydroxy-2,6,6-trimethyl-3-(1-methylcyclopropyl)-4-oxocyclohex-2-en-1-yl)-3-methylpenta-2,4-dienoic acid]",−−,
"CCCCCCC1=C(C)C(O)(/C=C/C(C)=C\C(=O)O)C(C)(C)CC1=O (racemic) [Example 37, (2Z,4E)-5-(3-hexyl-1-hydroxy-2,6,6-trimethyl-4-oxocyclohex-2-en-1-yl)-3-methylpenta-2,4-dienoic acid]",−−,
"CC1=C(C2CCCC2)C(=O)CC(C)(C)C1(O)/C=C/C(C)=C\C(=O)O (racemic) [Example 42, (2Z,4E)-5-(3-cyclopentyl-1-hydroxy-2,6,6-trimethyl-4-oxocyclohex-2-en-1-yl)-3-methylpenta-2,4-dienoic acid]",−−,
"CC1=C(C2CC2F)C(=O)CC(C)(C)C1(O)/C=C/C(C)=C\C(=O)O (racemic) [Example 43, (2Z,4E)-5-(3-(2-fluorocyclopropyl)-1-hydroxy-2,6,6-trimethyl-4-oxocyclohex-2-en-1-yl)-3-methylpenta-2,4-dienoic acid]",,Arabidopsis seed germination inhibition potency [2]: +++; germination inhibition activity compared to (S)-ABA (in words) [3]: the same level of potency as (S)-ABA
"CC1=C(C(F)(F)F)C(=O)CC(C)(C)C1(O)/C=C/C(C)=C\C(=O)O (racemic) [Example 45, (2Z,4E)-5-(1-hydroxy-2,6,6-trimethyl-4-oxo-3-(trifluoromethyl)cyclohex-2-en-1-yl)-3-methylpenta-2,4-dienoic acid]",,Arabidopsis seed germination inhibition potency [2]: ++++; germination inhibition activity compared to (S)-ABA (in words) [3]: more active than (S)-ABA
"CC1=C(c2ccccc2)C(=O)CC(C)(C)C1(O)/C=C/C(C)=C\C(=O)O (racemic) [Example 46, (2Z,4E)-5-(3-hydroxy-2,4,4-trimethyl-6-oxo-3,4,5,6-tetrahydro-[1,1′-biphenyl]-3-yl)-3-methylpenta-2,4-dienoic acid]",−−,
